Data from patent publication US10906890B2, “Triazole phenyl compounds as agonists of the APJ receptor” (AMGEN INC., priority 2016, dated 2021).
pEC50: −log10 of the molar value.

These compounds were tested against human APJ receptor (Homo sapiens (Human), UniProt P35414) (assay: [35S]GTPγS binding assay on membranes from CHO cells stably expressing human APJ receptor). Details: means of several independent experiments, read-out: Activity hAPJ SPA EC50 IP.
human APJ receptor, sequence (P35414 whole entry): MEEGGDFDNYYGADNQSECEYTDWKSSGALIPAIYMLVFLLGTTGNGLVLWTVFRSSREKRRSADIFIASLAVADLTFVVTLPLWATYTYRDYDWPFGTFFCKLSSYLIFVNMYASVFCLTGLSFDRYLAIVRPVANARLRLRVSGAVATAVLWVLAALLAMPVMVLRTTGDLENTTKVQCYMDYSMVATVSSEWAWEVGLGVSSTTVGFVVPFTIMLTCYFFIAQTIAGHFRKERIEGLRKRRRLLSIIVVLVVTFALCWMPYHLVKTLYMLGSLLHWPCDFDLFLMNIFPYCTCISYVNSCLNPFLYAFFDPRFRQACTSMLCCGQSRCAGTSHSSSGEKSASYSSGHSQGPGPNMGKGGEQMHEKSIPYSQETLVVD
Type: biochemical
Experimental: The human APJ receptor was cloned by polymerase chain reaction and the gene encoding the receptor was subcloned in pFLAG-CMV™-3 expression vector (Sigma, Saint Louis, Mo. USA) in-house at Amgen. A GTPγS binding assay was performed on membranes prepared from CHO cells stably expressing human APJ receptor. The optimum experimental conditions for the concentrations of GDP, MgCl2, and NaCl in the assay buffer were initially determined. […] Incubation was at RT for 90 min and the microplate was read using a ViewLux™ ultra HTS Microplate Imager (PerkinElmer, Inc.). All the results presented are means of several independent experiments and analyzed by non-linear regression methods using the commercially available program Prism (GraphPad, San Diego, Calif.) providing the EC50 values detailed in Table 28.
`COc1ccnc(OC)c1-n1c(NS(=O)(=O)[C@@H](C)[C@H](C)c2cnc(C)cn2)nnc1-c1ccccc1` (single isomer, unassigned) [Example 54.0, (2S,3R,P)-N-(4-(2,4-dimethoxy-3-pyridinyl)-5-phenyl-4H-1,2,4-triazol-3-yl)-3-(5-methyl-2-pyrazinyl)-2-butanesulfonamide or (2S,3R,M)-N-(4-(2,4-dimethoxy-3-pyridinyl)-5-phenyl-4H-1,2,4-triazol-3-yl)-3-(5-methyl-2-pyrazinyl)-2-butanesulfonamide] was tested, and the pEC50 was 7.85. With `COc1ccnc(OC)c1-n1c(NS(=O)(=O)[C@@H](C)[C@H](C)c2cnc(C)cn2)nnc1-c1ccccc1` (single isomer, unassigned) [Example 55.0, (2S,3R,P)-N-(4-(2,4-dimethoxy-3-pyridinyl)-5-phenyl-4H-1,2,4-triazol-3-yl)-3-(5-methyl-2-pyrazinyl)-2-butanesulfonamide or (2S,3R,M)-N-(4-(2,4-dimethoxy-3-pyridinyl)-5-phenyl-4H-1,2,4-triazol-3-yl)-3-(5-methyl-2-pyrazinyl)-2-butanesulfonamide] the pEC50 was 9.48. For `COc1cccc(OC)c1-n1c(NS(=O)(=O)[C@H]2C[C@@H](O)CN(c3ncc(F)cn3)C2)nnc1-c1ccccc1` (single isomer, unassigned) [Example 56.0, (3R,5S)-N-(4-(2,6-dimethoxyphenyl)-5-phenyl-4H-1,2,4-triazol-3-yl)-1-(5-fluoro-2-pyrimidinyl)-5-hydroxy-3-piperidinesulfonamide or (3S,5R)-N-(4-(2,6-dimethoxyphenyl)-5-phenyl-4H-1,2,4-triazol-3-yl)-1-(5-fluoro-2-pyrimidinyl)-5-hydroxy-3-piperidinesulfonamide], the pEC50 was 7.52. With `COc1cccc(OC)c1-n1c(NS(=O)(=O)[C@H]2C[C@@H](O)CN(c3ncc(F)cn3)C2)nnc1-c1ccccc1` (single isomer, unassigned) [Example 57.0, (3R,5S)-N-(4-(2,6-dimethoxyphenyl)-5-phenyl-4H-1,2,4-triazol-3-yl)-1-(5-fluoro-2-pyrimidinyl)-5-hydroxy-3-piperidinesulfonamide or (3S,5R)-N-(4-(2,6-dimethoxyphenyl)-5-phenyl-4H-1,2,4-triazol-3-yl)-1-(5-fluoro-2-pyrimidinyl)-5-hydroxy-3-piperidinesulfonamide] the pEC50 was 8.85. In the case of `COc1cccc(OC)c1-n1c(NS(=O)(=O)[C@H]2C[C@@H](OC(C)C)CN(c3ncc(F)cn3)C2)nnc1-c1ccccc1` (single isomer, unassigned) [Example 58.0, (3R,5S)-N-(4-(2,6-dimethoxyphenyl)-5-phenyl-4H-1,2,4-triazol-3-yl)-1-(5-fluoro-2-pyrimidinyl)-5-(1-methylethoxy)-3-piperidinesulfonamide or (3S,5R)-N-(4-(2,6-dimethoxyphenyl)-5-phenyl-4H-1,2,4-triazol-3-yl)-1-(5-fluoro-2-pyrimidinyl)-5-(1-methylethoxy)-3-piperidinesulfonamide], the pEC50 was 9.03. With `COc1cccc(OC)c1-n1c(NS(=O)(=O)[C@H]2C[C@@H](OC(C)C)CN(c3ncc(F)cn3)C2)nnc1-c1ccccc1` (single isomer, unassigned) [Example 59.0, (3R,5S)-N-(4-(2,6-dimethoxyphenyl)-5-phenyl-4H-1,2,4-triazol-3-yl)-1-(5-fluoro-2-pyrimidinyl)-5-(1-methylethoxy)-3-piperidinesulfonamide or (3S,5R)-N-(4-(2,6-dimethoxyphenyl)-5-phenyl-4H-1,2,4-triazol-3-yl)-1-(5-fluoro-2-pyrimidinyl)-5-(1-methylethoxy)-3-piperidinesulfonamide] the pEC50 was 7.07. `COc1ncnc(OC)c1-n1c(NS(=O)(=O)[C@H]2C[C@@H](OC(C)C)CN(c3ncc(F)cn3)C2)nnc1-c1ccccc1` (single isomer, unassigned) [Example 64.0, (3R,5S)-N-(4-(4,6-dimethoxy-5-pyrimidinyl)-5-phenyl-4H-1,2,4-triazol-3-yl)-1-(5-fluoro-2-pyrimidinyl)-5-(1-methylethoxy)-3-piperidinesulfonamide or (3S,5R)-N-(4-(4,6-dimethoxy-5-pyrimidinyl)-5-phenyl-4H-1,2,4-triazol-3-yl)-1-(5-fluoro-2-pyrimidinyl)-5-(1-methylethoxy)-3-piperidinesulfonamide] gave a pEC50 of 8.33. With `COc1ncnc(OC)c1-n1c(NS(=O)(=O)[C@@H](C)[C@H](OC)c2ncc(C)cn2)nnc1-c1cccc(Br)c1` [Example 1.0, (1R,2S)—N-(5-(3-Bromophenyl)-4-(4,6-dimethoxypyrimidin-5-yl)-4H-1,2,4-triazol-3-yl)-1-methoxy-1-(5-methylpyrimidin-2-yl)propane-2-sulfonamide] the pEC50 was 8.38. For `COc1ncnc(OC)c1-n1c(NS(=O)(=O)[C@@H](C)[C@H](OC)c2ncc(C)cn2)nnc1-c1cccc(C#N)c1` [Example 2.0, (1R,2S)-N-(5-(3-cyanophenyl)-4-(4,6-dimethoxypyrimidin-5-yl)-4H-1,2,4-triazol-3-yl)-1-methoxy-1-(5-methylpyrimidin-2-yl)propane-2-sulfonamide], the pEC50 was 6.96. `COc1ncnc(OC)c1-n1c(NS(=O)(=O)[C@@H](C)[C@H](OC)c2ncc(C)cn2)nnc1-c1cccc(Cl)c1` [Example 3.0, (1R,25)-N-(5-(3-chlorophenyl)-4-(4,6-dimethoxypyrimidin-5-yl)-4H-1,2,4-triazol-3-yl)-1-methoxy-1-(5-methylpyrimidin-2-yl)propane-2-sulfonamide] was tested, and the pEC50 was 8.28. `COc1ncnc(OC)c1-n1c(NS(=O)(=O)[C@@H](C)[C@H](OC)c2ncc(C)cn2)nnc1-c1ccccc1` [Example 4.0, (1R,2S)-N-(4-(4,6-dimethoxypyrimidin-5-yl)-5-phenyl-4H-1,2,4-triazol-3-yl)-1-methoxy-1-(5-methylpyrimidin-2-yl)propane-2-sulfonamide] was tested, and the pEC50 was 8.54. `COc1ncnc(OC)c1-n1c(NS(=O)(=O)[C@@H](C)[C@H](C)c2ncc(C)cn2)nnc1-c1ccccc1` [Example 5.0, (2S,3R)-N-(4-(4,6-dimethoxy-5-pyrimidinyl)-5-phenyl-4H-1,2,4-triazol-3-yl)-3-(5-methyl-2-pyrimidinyl)-2-butanesulfonamide] was tested, and the pEC50 was 8.64. In the case of `COc1cccc(-c2nnc(NS(=O)(=O)[C@@H](C)[C@H](OC)c3ncc(C)cn3)n2-c2c(OC)ncnc2OC)c1` [Example 6.0, (1R,2S)-N-(4-(4,6-dimethoxy-5-pyrimidinyl)-5-(3-methoxyphenyl)-4H-1,2,4-triazol-3-yl)-1-methoxy-1-(5-methyl-2-pyrimidinyl)-2-propanesulfonamide], the pEC50 was 8.17. For `COc1ncnc(OC)c1-n1c(NS(=O)(=O)CCc2ccc(F)cc2C#N)nnc1-c1ccccc1` [Example 10.0, 2-(2-cyano-4-fluorophenyl)-N-(4-(4,6-dimethoxy-5-pyrimidinyl)-5-phenyl-4H-1,2,4-triazol-3-yl)ethanesulfonamide], the pEC50 was 7.38. For `COc1cccc(OC)c1-n1c(NS(=O)(=O)CCc2ccc(F)cc2C#N)nnc1-c1ccccc1` [Example 12.0, 2-(2-cyano-4-fluorophenyl)-N-(4-(2,6-dimethoxyphenyl)-5-phenyl-4H-1,2,4-triazol-3-yl)ethanesulfonamide], the pEC50 was 8.07. Compound `COc1cccc(OC)c1-n1c(NS(=O)(=O)[C@@H](C)[C@@H](OC(C)C)c2ncc(C)cn2)nnc1-c1ccccc1` [Example 13.0, (1S,2S)-N-(4-(2,6-dimethoxyphenyl)-5-phenyl-4H-1,2,4-triazol-3-yl)-1-(1-methylethoxy)-1-(5-methyl-2-pyrimidinyl)-2-propanesulfonamide] has a pEC50 of 9.66. Compound `COc1ncnc(OC)c1-n1c(NS(=O)(=O)[C@@H](C)[C@@H](OC(C)C)c2ncc(C)cn2)nnc1-c1ccccc1` [Example 14.0, (1S,2S)-N-(4-(4,6-dimethoxy-5-pyrimidinyl)-5-phenyl-4H-1,2,4-triazol-3-yl)-1-(1-methylethoxy)-1-(5-methyl-2-pyrimidinyl)-2-propanesulfonamide] has a pEC50 of 9.26. `COc1cccc(OC)c1-n1c(NS(=O)(=O)[C@@H](C)[C@H](C)c2ncc(C)cn2)nnc1-c1ccccc1` [Example 15.0, (2S,3R)-N-(4-(2,6-dimethoxyphenyl)-5-phenyl-4H-1,2,4-triazol-3-yl)-3-(5-methyl-2-pyrimidinyl)-2-butanesulfonamide] showed a pEC50 of 9.05. `COc1cccc(OC)c1-n1c(NS(=O)(=O)[C@@H](C)[C@H](C)c2ncc(Cl)cn2)nnc1-c1ccccc1` [Example 16.0, (2S,3R)-3-(5-chloro-2-pyrimidinyl)-N-(4-(2,6-dimethoxyphenyl)-5-phenyl-4H-1,2,4-triazol-3-yl)-2-butanesulfonamide] showed a pEC50 of 9.70. Work on `COc1ncnc(OC)c1-n1c(NS(=O)(=O)[C@@H](C)[C@H](C)c2ncc(Cl)cn2)nnc1-c1ccccc1` [Example 17.0, (2S,3R)-3-(5-chloro-2-pyrimidinyl)-N-(4-(4,6-dimethoxy-5-pyrimidinyl)-5-phenyl-4H-1,2,4-triazol-3-yl)-2-butanesulfonamide] yielded a pEC50 of 9.05. Compound `COc1cccc(OC)c1-n1c(NS(=O)(=O)[C@@H](C)[C@H](O)c2ncc(C)cn2)nnc1-c1ccccc1` [Example 18.0, (1R,2S)-N-(4-(2,6-dimethoxyphenyl)-5-phenyl-4H-1,2,4-triazol-3-yl)-1-hydroxy-1-(5-methyl-2-pyrimidinyl)-2-propanesulfonamide] has a pEC50 of 9.09. `COc1ncnc(OC)c1-n1c(NS(=O)(=O)CCc2ccc(Cl)cc2)nnc1-c1ccccc1` [Example 19.0, 2-(4-chlorophenyl)-N-(4-(4,6-dimethoxy-5-pyrimidinyl)-5-phenyl-4H-1,2,4-triazol-3-yl)ethanesulfonamide] gave a pEC50 of 7.40. In the case of `COc1ncnc(OC)c1-n1c(NS(=O)(=O)[C@@H](C)[C@H](O)c2ncc(C)cn2)nnc1-c1ccccc1` [Example 20.0, (1R,2S)-N-(4-(4,6-dimethoxy-5-pyrimidinyl)-5-phenyl-4H-1,2,4-triazol-3-yl)-1-hydroxy-1-(5-methyl-2-pyrimidinyl)-2-propanesulfonamide], the pEC50 was 8.28.
